# Earlier results as cited in patent publication US12544371B2, “Methods and compositions for treating acute lung injury and acute respiratory distress syndrome” (CalciMedica, Inc., priority 2020, dated 2026).
# “Also recorded” adds a separate entry of the source.
# Legend:
# [1] = cited from earlier work
# [2] = Gandhirajan et al. 2013; cited from earlier work
# [3] = mice, cited from earlier work
smiles,measurement,setting,value
"Cc1nnsc1C(=O)Nc1ccc(-n2nc(C(F)(F)F)cc2C(F)(F)F)cc1 [BTP2, N-(4-(3,5-bis(trifluoromethyl)-1H-pyrazol-1-yl)phenyl)-4-methyl-1,2,3-thiadiazole-5-carboxamide]",endothelial lung dysfunction and lung inflammation,[1]; rat ventilator-induced lung injury,suppress
same,ventilator-induced lung injury,[1]; rats,attenuate
same,infiltration of neutrophils into inflamed lung tissue,[2],reduced
same,inflammatory cytokines associated with lung inflammation,[2],down-regulated
same,vascular permeability in lungs,[2],decreased
same,endothelial cell Ca2+ flux,[3]; delivered 2 hours after systemic endotoxin,striking reduction
same,measures of lung injury (endotoxin / lipopolysaccharide-induced),[3],sharp decrease; also recorded: attenuate
